What was measured:
[1] = target: T1, human EDG-1 (S1P1) (Homo sapiens, UniProt P21453); experiment: GTP [γ-35S] binding assay, membranes from CHO cells expressing human EDG-1; assay type: biochemical; conditions: EDG-1 GTP [γ-35S] binding, CHO cell membranes
T1 construct: expressed in transfected cells
Protocol: A. In Vitro: GPCR Activation Assay Measuring GTP [γ-^35S] Binding to Membranes Prepared from Cho Cells Expressing Human EDG Receptors
EDG-1 (S1P1) GTP [γ-^35S] binding assay: Homogenized membranes are prepared from CHO cell clones stably expressing a human EDG-1 N-terminal c-myc tag. Cells are grown in suspension in two 850 cm^2 roller bottles for three or fours days before harvesting. The cells are centrifuged down, washed once with cold PBS, and resuspended in ≦20 ml of Buffer A (20 mM HEPES, pH 7.4, 10 mM EDTA, EDTA-free complete protease inhibitor cocktail [1 tablet/25 ml]). The cell suspension is homogenized on ice, using a Polytron homogenizer at 30000 rpm at three intervals of 15 seconds each. The homogenate is first centrifuged at 2000 rpm on a tabletop low speed centrifuge for 10 minutes. The supernatant, after passing through a cell strainer, is then re-centrifuged at 50,000×g for 25 minutes at 4° C. The pellet is resuspended into buffer B (15% glycerol, 20 mM HEPES, pH 7.4, 0.1 mM EDTA, EDTA-free complete protease inhibitor cocktail [1 tablet/10 ml]). Protein concentration of the prep is determined using the BCA Protein Assay kit (Pierce) using BSA as standard. The membranes are aliquoted and kept frozen at −80° C.
Solutions of test compounds ranging from 10 mM to 0.01 nM are prepared in DMSO. S1P is diluted in 4% BSA solution as positive controls. […]

[2] = system: blood lymphocytes; experiment: Measurement of circulating lymphocytes (blood lymphocyte depletion) in mice; assay type: in vivo, Mice (C57bl/6); conditions: Mus musculus, oral gavage, blood collected 6 and 24 hours after administration, read-out: ED50, effective dose required displaying 50% of blood lymphocyte depletion
Protocol: C. In Vivo: Screening Assays for Measurement of Blood Lymphocyte Depletion and Assessment of Heart Effect
Measurement of circulating lymphocytes: Compounds are dissolved in DMSO and diluted to obtain a final concentration of 4% DMSO (v/v, final concentration) and then further diluted in a constant volume of Tween80 25%/H2O, v/v. Tween80 25%/H2O (200 μl), 4% DMSO, and FTY720 (10 μg) are included as negative and positive controls, respectively. Mice (C57bl/6 male, 6-10 week-old) are administered 250-300 μL of compound solution orally by gavages under short isoflurane anesthesia.
Blood is collected from the retro-orbital sinus 6 and 24 hours after drug administration under short isoflurane anesthesia. Whole blood samples are subjected to hematology analysis. Peripheral lymphocyte counts are determined using an automated analyzer. Subpopulations of peripheral blood lymphocytes are stained by fluorochrome-conjugated specific antibodies and analyzed using a fluorescent activating cell sorter (Facscalibur). Two mice are used to assess the lymphocyte depletion activity of each compound screened. The result is an ED50, which is defined as the effective dose required displaying 50% of blood lymphocyte depletion.

T1 sequence (P21453 whole entry): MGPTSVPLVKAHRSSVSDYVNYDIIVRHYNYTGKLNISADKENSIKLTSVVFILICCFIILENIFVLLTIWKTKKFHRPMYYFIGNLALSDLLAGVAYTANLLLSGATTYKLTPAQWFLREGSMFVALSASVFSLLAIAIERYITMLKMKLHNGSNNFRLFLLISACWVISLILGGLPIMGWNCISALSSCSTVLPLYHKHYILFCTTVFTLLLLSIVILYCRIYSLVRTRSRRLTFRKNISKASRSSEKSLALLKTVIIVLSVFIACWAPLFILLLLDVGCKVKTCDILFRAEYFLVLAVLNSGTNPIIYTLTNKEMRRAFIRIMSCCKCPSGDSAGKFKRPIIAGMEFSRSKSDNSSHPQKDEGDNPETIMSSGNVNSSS

EC50 [1] [pM] | SMILES | ED50 [2] [mg/kg]
800 | CCc1cc(/C(C)=N/OCc2ccc(C3CCCCC3)c(C(F)(F)F)c2)ccc1CNCCC(=O)O [Example 2, 3-{4-[1-(4-Cyclohexyl-3-trifluoromethyl-benzyloxyimino)-ethyl]-2-ethyl-benzylamino}-propionic acid] | 0.07
200 | CCc1cc(/C(C)=N/OCc2ccc(C3CCCCC3)c(C(F)(F)F)c2)ccc1CN1CC(C(=O)O)C1 [Example 3, 1-{4-[1-(4-Cyclohexyl-3-trifluoromethyl-benzyloxyimino)-ethyl]-2-ethyl-benzyl}-azetidine-3-carboxylic acid] | 0.1
